# Data from patent publication US20240215573A1, “LIQUID AGROCHEMICAL COMPOSITION” (NOURYON CHEMICALS INTERNATIONAL B.V., priority 2020, published 2024).
# Experiments:
# Type in all cases: in vivo
# [1] = tested on: Anthracnose (Colletotrichum gloeosporioides); test: Greenhouse Test 2: Thiophenate methyl 70% WP with surfactants against anthracnose of grapes; conditions: Table C, summary in words
# Description: (§1) In a second series of Examples, the following compounds are utilized to evaluate the efficacy of various fungicides in combination with various surfactants against fungi: • Fungicides: Hexaconazole 5% EC; Dimethomorph 50WP; Thiophenate methyl 70% WP; Azoxystrobin 23 SC • Surfactants: • Dioctyl sulfosuccinate • Alkoxylated glyceride with 20EO; • Alkoxylated glyceride with 50EO; • Siloxane Polyalkyleneoxide Copolymer • Fungi: • Powdery mildew (Erysiphenecator); • Downy mildew (Plasmopara viticola); • Anthracnose (Colletotrichum gloeosporioides); and • Early blight (Alternariasolani). The following test protocol is used:
# (§2) There are 4 different fungicide formulations tested against 4 different pests (fungi). For each test there are untreated control (#1) and fungicide only w/o surfactant (#2). The same general protocol described above was used.
# Percent Disease Index (PDI) for powdery mildew, downy mildew, anthracnose and early blight diseases were calculated by following formulae: […]
# In case of grapes ratings on minimum ten leaves and a bunch were recorded on randomly selected canes. Ten such canes per plant were observed. The observations on 8 plants spread over four replication were recorded. Thus, the data presented on PDI is average of randomly selected 80 canes.
# fungi = test: Greenhouse Test 2: overall comparison over the 4 fungicide formulations and 4 fungi; conditions: all 4 fungicide formulations; summary in words
# Description: as §1, §2
# Alfalfa [2] = test: Greenhouse Test 1: weed control by 2,4-D with surfactants
# Description: In a first series of Examples, the following compounds are utilized to evaluate the efficacy of various herbicides in combination with various surfactants against two types of weeds: • Herbicides: […]; dicamba; and glufosinate • Surfactants: Glycerol Monosoyate+10EO; • Glycerol Monosoyate+15EO; • Glycerol Monosoyate+20EO; • Glycerol Monosoyate+30EO; • Glycerol Monosoyate+50EO; • Soybean oil+20EO; • Reference 1—Polyoxyethylene (20) sorbitan monolaurate • Reference 2—Sodium lauryl ether sulfate The following test protocol is used:
# (§3) Data is collected at end of each week for 4 weeks.
# Alfalfa [3] = test: Greenhouse Test 1: weed control by dicamba with surfactants
# Description: (§4) In a first series of Examples, the following compounds are utilized to evaluate the efficacy of various herbicides in combination with various surfactants against two types of weeds: • Herbicides: 2,4-D ester; dicamba; and glufosinate • Surfactants: Glycerol Monosoyate+10EO; • Glycerol Monosoyate+15EO; • Glycerol Monosoyate+20EO; • Glycerol Monosoyate+30EO; • Glycerol Monosoyate+50EO; • Soybean oil+20EO; • Reference 1—Polyoxyethylene (20) sorbitan monolaurate • Reference 2—Sodium lauryl ether sulfate The following test protocol is used:
# as §3
# Morning glory = test: Greenhouse Test 1: weed control by glufosinate with surfactants
# Description: as §4, §3
# [4] = Table 1A: 2,4-D DMA 91 g ae/A, surfactant 0.1%
# [5] = Table 1B: 2,4-D DMA 91 g ae/A, surfactant 0.25%
# [6] = Table 1C: 2,4-D DMA 91 g ae/A, surfactant 0.25% (so in the source)
# [7] = Table 1D: 2,4-D DMA 91 g ae/A (so in the source), surfactant 0.25%
# [8] = Table 2A: Dicamba 23 g ae/A, surfactant 0.1%
# [9] = Table 2B: Dicamba 23 g ae/A, surfactant 0.25%
# [10] = Table 2C: Dicamba 45 g ae/A, surfactant 0.1%
# [11] = Table 2D: Dicamba 45 g ae/A, surfactant 0.25%
# [12] = Table 3A: Glufosinate 3 oz/a, surfactant 0.25%
# [13] = Table 3B: Glufosinate 3 oz/a, surfactant 0.5%
# [14] = Table 3C: Glufosinate 6 oz/a, surfactant 0.25%
# [15] = Table 3D: Glufosinate 6 oz/a, surfactant 0.50%
molecule,measurement,setting,value
"CCCCCCCCOC(=O)CC(C(=O)OCCCCCCCC)S(=O)(=O)O (centres unmarked) [dioctyl sulfosuccinate, Dioctyl sulfosuccinate]",efficacy compared with alkoxylated glyceride with 20EO,[1],lack of efficacy as compared to the alkoxylated glyceride with 20EO
same,overall disease control with fungicides,fungi,overall good control in all cases
Sodium lauryl ether sulfate,"% weed control, 7 day",Alfalfa [2]; [4],67.5%
same,"% weed control, 14 day",Alfalfa [2]; [4],83.8%
same,"% weed control, 21 day",Alfalfa [2]; [4],73.8%
same,"% weed control, 28 day",Alfalfa [2]; [4],75.0%
same,"% weed control, 7 day",Alfalfa [2]; [5],67.5%
same,"% weed control, 14 day",Alfalfa [2]; [5],82.5%
same,"% weed control, 21 day",Alfalfa [2]; [5],72.5%
same,"% weed control, 28 day",Alfalfa [2]; [5],67.5%
same,"% weed control, 7 day",Alfalfa [2]; [6],72.5%
same,"% weed control, 14 day",Alfalfa [2]; [6],86.3%
same,"% weed control, 21 day",Alfalfa [2]; [6],86.3%
same,"% weed control, 28 day",Alfalfa [2]; [6],87.5%
same,"% weed control, 7 day",Alfalfa [2]; [7],75.0%
same,"% weed control, 14 day",Alfalfa [2]; [7],85.0%
same,"% weed control, 21 day",Alfalfa [2]; [7],82.5%
same,"% weed control, 28 day",Alfalfa [2]; [7],83.8%
same,"% weed control, 7 day",Alfalfa [3]; [8],72.5%
same,"% weed control, 14 day",Alfalfa [3]; [8],81.3%
same,"% weed control, 21 day",Alfalfa [3]; [8],71.3%
same,"% weed control, 28 day",Alfalfa [3]; [8],70.0%
same,"% weed control, 7 day",Alfalfa [3]; [9],65.0%
same,"% weed control, 14 day",Alfalfa [3]; [9],80.0%
same,"% weed control, 21 day",Alfalfa [3]; [9],67.5%
same,"% weed control, 28 day",Alfalfa [3]; [9],70.0%
same,"% weed control, 7 day",Alfalfa [3]; [10],72.5%
same,"% weed control, 14 day",Alfalfa [3]; [10],82.5%
same,"% weed control, 21 day",Alfalfa [3]; [10],76.3%
same,"% weed control, 28 day",Alfalfa [3]; [10],76.3%
same,"% weed control, 7 day",Alfalfa [3]; [11],67.5%
same,"% weed control, 14 day",Alfalfa [3]; [11],82.5%
same,"% weed control, 21 day",Alfalfa [3]; [11],75.0%
same,"% weed control, 28 day",Alfalfa [3]; [11],75.0%
same,"% weed control, 7 day",Morning glory; [12],85.0%
same,"% weed control, 14 day",Morning glory; [12],75.0%
same,"% weed control, 21 day",Morning glory; [12],55.0%
same,"% weed control, 28 day",Morning glory; [12],55.0%
same,"% weed control, 7 day",Morning glory; [13],87.5%
same,"% weed control, 14 day",Morning glory; [13],90.0%
same,"% weed control, 21 day",Morning glory; [13],87.5%
same,"% weed control, 28 day",Morning glory; [13],77.5%
same,"% weed control, 7 day",Morning glory; [14],92.5%
same,"% weed control, 14 day",Morning glory; [14],95.8%
same,"% weed control, 21 day",Morning glory; [14],95.8%
same,"% weed control, 28 day",Morning glory; [14],96.5%
same,"% weed control, 7 day",Morning glory; [15],90.0%
same,"% weed control, 14 day",Morning glory; [15],88.8%
same,"% weed control, 21 day",Morning glory; [15],91.3%
same,"% weed control, 28 day",Morning glory; [15],89.5%
Polyoxyethylene (20) sorbitan monolaurate,"% weed control, 7 day",Alfalfa [2]; [4],67.5%
same,"% weed control, 14 day",Alfalfa [2]; [4],83.8%
same,"% weed control, 21 day",Alfalfa [2]; [4],70.0%
same,"% weed control, 28 day",Alfalfa [2]; [4],72.5%
same,"% weed control, 7 day",Alfalfa [2]; [5],67.5%
same,"% weed control, 14 day",Alfalfa [2]; [5],81.3%
same,"% weed control, 21 day",Alfalfa [2]; [5],67.5%
same,"% weed control, 28 day",Alfalfa [2]; [5],72.5%
same,"% weed control, 7 day",Alfalfa [2]; [6],72.5%
same,"% weed control, 14 day",Alfalfa [2]; [6],86.3%
same,"% weed control, 21 day",Alfalfa [2]; [6],80.0%
same,"% weed control, 28 day",Alfalfa [2]; [6],85.0%
same,"% weed control, 7 day",Alfalfa [2]; [7],72.5%
same,"% weed control, 14 day",Alfalfa [2]; [7],82.5%
same,"% weed control, 21 day",Alfalfa [2]; [7],76.3%
same,"% weed control, 28 day",Alfalfa [2]; [7],81.3%
same,"% weed control, 7 day",Alfalfa [3]; [8],62.5%
same,"% weed control, 14 day",Alfalfa [3]; [8],73.8%
same,"% weed control, 21 day",Alfalfa [3]; [8],50.0%
same,"% weed control, 28 day",Alfalfa [3]; [8],62.5%
same,"% weed control, 7 day",Alfalfa [3]; [9],60.0%
same,"% weed control, 14 day",Alfalfa [3]; [9],70.0%
same,"% weed control, 21 day",Alfalfa [3]; [9],50.0%
same,"% weed control, 28 day",Alfalfa [3]; [9],50.0%
same,"% weed control, 7 day",Alfalfa [3]; [10],77.5%
same,"% weed control, 14 day",Alfalfa [3]; [10],87.5%
same,"% weed control, 21 day",Alfalfa [3]; [10],76.3%
same,"% weed control, 28 day",Alfalfa [3]; [10],81.3%
same,"% weed control, 7 day",Alfalfa [3]; [11],70.0%
same,"% weed control, 14 day",Alfalfa [3]; [11],83.8%
same,"% weed control, 21 day",Alfalfa [3]; [11],75.0%
same,"% weed control, 28 day",Alfalfa [3]; [11],78.8%
same,"% weed control, 7 day",Morning glory; [12],85.0%
same,"% weed control, 14 day",Morning glory; [12],80.0%
same,"% weed control, 21 day",Morning glory; [12],58.8%
same,"% weed control, 28 day",Morning glory; [12],56.3%
same,"% weed control, 7 day",Morning glory; [13],91.3%
same,"% weed control, 14 day",Morning glory; [13],92.0%
same,"% weed control, 21 day",Morning glory; [13],85.0%
same,"% weed control, 28 day",Morning glory; [13],82.5%
same,"% weed control, 7 day",Morning glory; [14],91.3%
same,"% weed control, 14 day",Morning glory; [14],91.3%
same,"% weed control, 21 day",Morning glory; [14],82.5%
same,"% weed control, 28 day",Morning glory; [14],81.3%
same,"% weed control, 7 day",Morning glory; [15],91.3%
same,"% weed control, 14 day",Morning glory; [15],93.8%
same,"% weed control, 21 day",Morning glory; [15],94.5%
same,"% weed control, 28 day",Morning glory; [15],95.8%
CP(=O)(O)CCC(N)C(=O)O (centres unmarked) [Glufosinate],"% weed control, 7 day",Morning glory; [12],0.0%
same,"% weed control, 14 day",Morning glory; [12],40.0%
same,"% weed control, 21 day",Morning glory; [12],25.0%
same,"% weed control, 28 day",Morning glory; [12],12.5%
same,"% weed control, 7 day",Morning glory; [13],0.0%
same,"% weed control, 14 day",Morning glory; [13],40.0%
same,"% weed control, 21 day",Morning glory; [13],25.0%
same,"% weed control, 28 day",Morning glory; [13],12.5%
same,"% weed control, 7 day",Morning glory; [14],0.0%
same,"% weed control, 14 day",Morning glory; [14],55.0%
same,"% weed control, 21 day",Morning glory; [14],40.0%
same,"% weed control, 28 day",Morning glory; [14],27.5%
same,"% weed control, 7 day",Morning glory; [15],0.0%
same,"% weed control, 14 day",Morning glory; [15],55.0%
same,"% weed control, 21 day",Morning glory; [15],40.0%
same,"% weed control, 28 day",Morning glory; [15],27.5%
"CNC.O=C(O)COc1ccc(Cl)cc1Cl [2,4-D DMA]","% weed control, 7 day",Alfalfa [2]; [4],0.0%
same,"% weed control, 14 day",Alfalfa [2]; [4],0.0%
same,"% weed control, 21 day",Alfalfa [2]; [4],27.5%
same,"% weed control, 28 day",Alfalfa [2]; [4],32.5%
same,"% weed control, 7 day",Alfalfa [2]; [5],0.0%
same,"% weed control, 14 day",Alfalfa [2]; [5],0.0%
same,"% weed control, 21 day",Alfalfa [2]; [5],27.5%
same,"% weed control, 28 day",Alfalfa [2]; [5],32.5%
same,"% weed control, 7 day",Alfalfa [2]; [6],0.0%
same,"% weed control, 14 day",Alfalfa [2]; [6],7.5%
same,"% weed control, 21 day",Alfalfa [2]; [6],57.5%
same,"% weed control, 28 day",Alfalfa [2]; [6],57.5%
same,"% weed control, 7 day",Alfalfa [2]; [7],0.0%
same,"% weed control, 14 day",Alfalfa [2]; [7],7.5%
same,"% weed control, 21 day",Alfalfa [2]; [7],57.5%
same,"% weed control, 28 day",Alfalfa [2]; [7],57.5%
COc1c(Cl)ccc(Cl)c1C(=O)O [Dicamba],"% weed control, 7 day",Alfalfa [3]; [8],0.0%
same,"% weed control, 14 day",Alfalfa [3]; [8],20.0%
same,"% weed control, 21 day",Alfalfa [3]; [8],20.0%
same,"% weed control, 28 day",Alfalfa [3]; [8],12.5%
same,"% weed control, 7 day",Alfalfa [3]; [9],0.0%
same,"% weed control, 14 day",Alfalfa [3]; [9],20.0%
same,"% weed control, 21 day",Alfalfa [3]; [9],20.0%
same,"% weed control, 28 day",Alfalfa [3]; [9],12.5%
same,"% weed control, 7 day",Alfalfa [3]; [10],0.0%
same,"% weed control, 14 day",Alfalfa [3]; [10],50.0%
same,"% weed control, 21 day",Alfalfa [3]; [10],75.0%
same,"% weed control, 28 day",Alfalfa [3]; [10],55.0%
same,"% weed control, 7 day",Alfalfa [3]; [11],0.0%
same,"% weed control, 14 day",Alfalfa [3]; [11],50.0%
same,"% weed control, 21 day",Alfalfa [3]; [11],75.0%
same,"% weed control, 28 day",Alfalfa [3]; [11],55.0%
